Our source for the IC50 and Nav1.4/Nav1.7 values is patent US9636418B2 (priority 2013, dated 2017).

SMILES strings stand for the structures.

The IC50 is the midpoint of a concentration-inhibition curve.

Common to all, as to assay: cell-based
One assay addresses hNav1.7 (Homo sapiens, UniProt Q15858). Conditions: IonWorks Quattro; read-out: IC50 Nav1.7. Background: In patch-clamp work, channel activity is measured electrically.
The next assay deals with hNav1.5 (Homo sapiens, UniProt Q14524). Conditions: IonWorks Quattro; read-out: IC50 Nav1.5.
The target of the next assay is hNav1.4 (Homo sapiens, UniProt P35499). Conditions: for IC50: IonWorks Quattro, read-out: IC50 Nav1.4; for Nav1.4/Nav1.7: ratio of IonWorks Quattro IC50 values.
In a further assay the target is hNav1.3 (Homo sapiens, UniProt Q9NY46). Conditions: IonWorks Quattro; read-out: IC50 Nav1.3.

Chain of hNav1.4 (P35499 whole entry): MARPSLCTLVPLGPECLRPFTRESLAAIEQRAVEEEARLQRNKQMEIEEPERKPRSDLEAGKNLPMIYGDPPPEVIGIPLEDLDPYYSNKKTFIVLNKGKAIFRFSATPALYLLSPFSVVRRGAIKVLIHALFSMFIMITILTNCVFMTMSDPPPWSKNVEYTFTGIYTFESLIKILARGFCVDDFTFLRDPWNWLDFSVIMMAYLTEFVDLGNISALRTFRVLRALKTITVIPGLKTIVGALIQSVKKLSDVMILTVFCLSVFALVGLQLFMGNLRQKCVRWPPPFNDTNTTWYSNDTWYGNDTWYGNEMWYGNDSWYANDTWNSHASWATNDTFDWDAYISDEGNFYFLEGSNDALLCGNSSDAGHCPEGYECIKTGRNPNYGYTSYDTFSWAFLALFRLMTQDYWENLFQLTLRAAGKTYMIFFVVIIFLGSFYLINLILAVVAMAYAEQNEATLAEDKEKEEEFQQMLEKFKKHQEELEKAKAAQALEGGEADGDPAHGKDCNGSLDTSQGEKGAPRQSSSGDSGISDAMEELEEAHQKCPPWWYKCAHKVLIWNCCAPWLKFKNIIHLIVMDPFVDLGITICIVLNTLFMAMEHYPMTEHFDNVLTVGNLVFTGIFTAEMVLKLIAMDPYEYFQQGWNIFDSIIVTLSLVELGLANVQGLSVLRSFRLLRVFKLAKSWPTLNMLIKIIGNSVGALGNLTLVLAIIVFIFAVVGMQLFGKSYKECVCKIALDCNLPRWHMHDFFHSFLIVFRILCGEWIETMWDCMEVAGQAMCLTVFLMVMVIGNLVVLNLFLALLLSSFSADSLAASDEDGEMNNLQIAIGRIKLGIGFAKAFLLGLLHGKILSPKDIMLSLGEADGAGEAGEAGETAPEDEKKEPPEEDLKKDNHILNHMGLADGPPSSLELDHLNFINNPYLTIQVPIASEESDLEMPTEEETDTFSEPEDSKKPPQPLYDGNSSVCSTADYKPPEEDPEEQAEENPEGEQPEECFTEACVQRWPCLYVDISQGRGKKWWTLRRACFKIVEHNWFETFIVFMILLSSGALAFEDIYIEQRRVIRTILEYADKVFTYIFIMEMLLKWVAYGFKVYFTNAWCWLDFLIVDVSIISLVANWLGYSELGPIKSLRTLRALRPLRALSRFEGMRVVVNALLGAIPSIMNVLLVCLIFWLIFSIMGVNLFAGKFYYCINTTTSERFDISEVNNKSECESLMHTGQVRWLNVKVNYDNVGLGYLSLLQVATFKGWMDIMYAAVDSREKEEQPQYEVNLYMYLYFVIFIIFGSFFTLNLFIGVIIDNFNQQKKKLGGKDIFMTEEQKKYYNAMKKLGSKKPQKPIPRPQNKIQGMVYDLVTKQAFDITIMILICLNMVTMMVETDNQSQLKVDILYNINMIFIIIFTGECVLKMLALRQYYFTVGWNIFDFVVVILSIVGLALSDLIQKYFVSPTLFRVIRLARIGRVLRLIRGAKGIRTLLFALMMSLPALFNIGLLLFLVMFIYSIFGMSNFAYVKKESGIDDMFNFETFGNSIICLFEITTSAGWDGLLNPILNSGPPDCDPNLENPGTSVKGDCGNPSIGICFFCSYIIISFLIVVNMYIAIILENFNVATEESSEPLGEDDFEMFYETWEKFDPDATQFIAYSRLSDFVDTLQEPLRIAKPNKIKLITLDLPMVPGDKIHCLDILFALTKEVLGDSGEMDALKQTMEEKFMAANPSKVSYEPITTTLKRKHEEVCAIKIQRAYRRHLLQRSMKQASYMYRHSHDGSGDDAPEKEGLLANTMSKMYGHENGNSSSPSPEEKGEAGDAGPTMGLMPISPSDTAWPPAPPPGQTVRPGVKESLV
Chain of hNav1.7 (Q15858 whole entry): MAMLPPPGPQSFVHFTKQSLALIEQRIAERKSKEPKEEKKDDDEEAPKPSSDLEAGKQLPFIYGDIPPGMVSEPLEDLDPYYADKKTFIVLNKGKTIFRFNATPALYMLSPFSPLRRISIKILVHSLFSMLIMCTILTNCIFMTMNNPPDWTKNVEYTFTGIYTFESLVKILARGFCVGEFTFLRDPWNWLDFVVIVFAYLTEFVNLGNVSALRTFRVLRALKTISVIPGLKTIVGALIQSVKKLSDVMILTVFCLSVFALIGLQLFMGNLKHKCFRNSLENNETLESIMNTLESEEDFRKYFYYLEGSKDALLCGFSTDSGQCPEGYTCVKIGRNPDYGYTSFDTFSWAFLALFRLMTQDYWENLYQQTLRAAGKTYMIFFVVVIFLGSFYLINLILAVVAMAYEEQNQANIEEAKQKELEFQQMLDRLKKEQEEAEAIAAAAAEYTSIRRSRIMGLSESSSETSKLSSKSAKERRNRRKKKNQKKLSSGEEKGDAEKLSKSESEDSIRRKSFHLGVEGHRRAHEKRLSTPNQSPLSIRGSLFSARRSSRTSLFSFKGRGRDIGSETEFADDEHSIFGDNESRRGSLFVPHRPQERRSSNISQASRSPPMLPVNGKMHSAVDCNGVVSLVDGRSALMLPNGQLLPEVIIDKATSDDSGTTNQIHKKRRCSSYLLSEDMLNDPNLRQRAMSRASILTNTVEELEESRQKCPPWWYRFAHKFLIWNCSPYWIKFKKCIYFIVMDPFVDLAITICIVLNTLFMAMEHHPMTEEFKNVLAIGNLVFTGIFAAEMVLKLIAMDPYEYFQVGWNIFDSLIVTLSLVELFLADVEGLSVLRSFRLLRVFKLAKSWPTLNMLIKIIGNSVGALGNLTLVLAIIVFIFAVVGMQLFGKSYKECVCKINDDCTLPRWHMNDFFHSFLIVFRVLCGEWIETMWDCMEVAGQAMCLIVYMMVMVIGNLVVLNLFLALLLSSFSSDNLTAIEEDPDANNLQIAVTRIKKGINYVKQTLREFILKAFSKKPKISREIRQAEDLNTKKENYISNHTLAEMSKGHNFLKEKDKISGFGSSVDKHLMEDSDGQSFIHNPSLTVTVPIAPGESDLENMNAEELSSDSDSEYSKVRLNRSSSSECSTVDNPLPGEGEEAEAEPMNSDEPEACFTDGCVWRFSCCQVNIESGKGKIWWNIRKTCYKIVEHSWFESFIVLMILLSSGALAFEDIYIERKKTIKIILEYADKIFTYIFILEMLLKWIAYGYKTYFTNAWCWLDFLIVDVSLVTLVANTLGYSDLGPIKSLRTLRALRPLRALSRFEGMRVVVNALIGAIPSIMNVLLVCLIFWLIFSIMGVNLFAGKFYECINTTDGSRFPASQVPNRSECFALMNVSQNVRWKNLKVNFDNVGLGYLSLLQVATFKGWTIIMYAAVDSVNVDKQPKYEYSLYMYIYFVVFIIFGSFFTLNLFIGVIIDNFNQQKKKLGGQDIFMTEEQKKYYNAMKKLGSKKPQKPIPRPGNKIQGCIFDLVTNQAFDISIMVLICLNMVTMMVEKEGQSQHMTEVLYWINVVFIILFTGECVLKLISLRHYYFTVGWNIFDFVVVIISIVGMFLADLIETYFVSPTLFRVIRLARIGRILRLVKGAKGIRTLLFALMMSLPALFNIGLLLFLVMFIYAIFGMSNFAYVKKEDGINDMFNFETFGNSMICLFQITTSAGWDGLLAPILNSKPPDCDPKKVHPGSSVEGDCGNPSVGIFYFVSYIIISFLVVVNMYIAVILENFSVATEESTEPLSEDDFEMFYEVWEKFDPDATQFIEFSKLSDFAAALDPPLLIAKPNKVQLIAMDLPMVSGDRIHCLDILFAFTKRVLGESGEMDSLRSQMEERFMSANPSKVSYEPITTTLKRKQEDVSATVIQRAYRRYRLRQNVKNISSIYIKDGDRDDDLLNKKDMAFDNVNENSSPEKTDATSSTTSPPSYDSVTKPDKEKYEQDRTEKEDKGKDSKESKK

Consider `CCC[C@@H]1NC(=O)[C@H](Cc2c[nH]c3ccccc23)NC(=O)[C@H](CCCCN)NC(=O)[C@H](CCC(N)=O)NC(=O)[C@@H](NC(=O)[C@@H](N)Cc2ccc(O)cc2)CSSC[C@@H]2NC(=O)[C@@H]3CSSC[C@@H](C(=O)N[C@@H](CCCNC(=N)N)C(=O)N[C@@H](CCCCN)C(=O)N[C@H](C(=O)N[C@H](C(N)=O)[C@@H](C)CC)[C@@H](C)CC)NC(=O)[C@H](Cc4c[nH]c5ccccc45)NC(=O)[C@H](CC(C)C)NC(=O)[C@H](CCCCN)NC(=O)[C@H](CSSC[C@H](NC(=O)[C@H]([C@@H](C)O)NC(=O)[C@H](Cc4c[nH]c5ccccc45)NC1=O)C(=O)N[C@@H](CC(=O)O)C(=O)N[C@@H](CO)C(=O)N[C@@H](CCCCN)C(=O)N[C@@H](CCCNC(=N)N)C(=O)N[C@@H](C)C(=O)N3)NC(=O)[C@H](CCC(=O)O)NC(=O)[C@H](CC(C)C)NC(=O)CNC(=O)[C@H](CCC(=O)O)NC2=O` [compound 111], for which the IC50 on hNav1.7 was 0.69 µM; at hNav1.5, 9.2 µM; on hNav1.4, over 5 µM; at hNav1.3, over 5 µM. Also, the Nav1.4/Nav1.7 on hNav1.4 was found to be 7.

For the compound `CC[C@H](C)[C@H](NC(=O)[C@H](CCCCN)NC(=O)[C@H](CCCNC(=N)N)NC(=O)[C@@H]1CSSC[C@@H]2NC(=O)[C@H](C)NC(=O)[C@H](CCCNC(=N)N)NC(=O)[C@H](CCCCN)NC(=O)[C@H](CO)NC(=O)[C@H](CC(=O)O)NC(=O)[C@@H]3CSSC[C@H](NC(=O)[C@H](CCC(=O)O)NC(=O)[C@H](CC(C)C)NC(=O)CNC(=O)[C@H](CCC(=O)O)NC(=O)[C@H](CSSC[C@H](NC(=O)[C@@H](N)Cc4ccc(O)cc4)C(=O)N[C@@H](CCC(N)=O)C(=O)N[C@@H](CCCCN)C(=O)N[C@@H](Cc4c[nH]c5ccccc45)C(=O)N[C@@H](CCSC)C(=O)N[C@@H](Cc4c[nH]c5ccccc45)C(=O)N[C@@H]([C@@H](C)O)C(=O)N3)NC2=O)C(=O)N[C@@H](CCCCN)C(=O)N[C@@H](CC(C)C)C(=O)N[C@@H](Cc2c[nH]c3ccccc23)C(=O)N1)C(=O)N[C@H](C(=O)N[C@@H](Cc1c[nH]c2ccccc12)C(N)=O)[C@@H](C)CC` [compound 113], the IC50 at hNav1.7 is 0.17 µM; at hNav1.5, 11.1 µM; on hNav1.4, over 5 µM; on hNav1.3, over 5 µM. The Nav1.4/Nav1.7 on hNav1.4 amounted to 30.

Regarding `CC[C@H](C)[C@H](NC(=O)[C@@H](NC(=O)[C@H](CCCCN)NC(=O)[C@H](CCCNC(=N)N)NC(=O)[C@@H]1CSSC[C@@H]2NC(=O)[C@H](C)NC(=O)[C@H](CCCNC(=N)N)NC(=O)[C@H](CCCCN)NC(=O)[C@H](CO)NC(=O)[C@H](CC(=O)O)NC(=O)[C@@H]3CSSC[C@H](NC(=O)[C@H](Cc4ccc(C(=O)O)cc4)NC(=O)[C@H](CC(C)C)NC(=O)CNC(=O)[C@H](CCC(=O)O)NC(=O)[C@H](CSSC[C@H](NC(=O)[C@@H](N)Cc4ccc(O)cc4)C(=O)N[C@@H](CCC(N)=O)C(=O)N[C@@H](CCCCN)C(=O)N[C@@H](Cc4c[nH]c5ccccc45)C(=O)N[C@@H](CCSC)C(=O)N[C@@H](Cc4c[nH]c5ccccc45)C(=O)N[C@@H]([C@@H](C)O)C(=O)N3)NC2=O)C(=O)N[C@@H](CCCCN)C(=O)N[C@@H](CC(C)C)C(=O)N[C@@H](Cc2c[nH]c3ccccc23)C(=O)N1)[C@@H](C)CC)C(N)=O` [compound 114], the IC50 is 0.21 µM at hNav1.7, 14.2 µM on hNav1.5, over 5 µM on hNav1.4 and over 5 µM on hNav1.3. Also, the Nav1.4/Nav1.7 at hNav1.4 came to 24.

`CC[C@H](C)[C@H](NC(=O)[C@@H](NC(=O)[C@H](CCCCN)NC(=O)[C@H](CCCNC(=N)N)NC(=O)[C@@H]1CSSC[C@@H]2NC(=O)[C@H](C)NC(=O)[C@H](CCCNC(=N)N)NC(=O)[C@H](CCCCN)NC(=O)[C@H](CO)NC(=O)[C@H](CC(=O)O)NC(=O)[C@@H]3CSSC[C@H](NC(=O)[C@H]([C@@H](C)CC)NC(=O)[C@H](CC(C)C)NC(=O)CNC(=O)[C@H](CCC(=O)O)NC(=O)[C@H](CSSC[C@H](NC(=O)[C@@H](N)Cc4ccc(O)cc4)C(=O)N[C@@H](CCC(N)=O)C(=O)N[C@@H](CCCCN)C(=O)N[C@@H](Cc4c[nH]c5ccccc45)C(=O)N[C@@H](CCSC)C(=O)N[C@@H](Cc4c[nH]c5ccccc45)C(=O)N[C@@H]([C@@H](C)O)C(=O)N3)NC2=O)C(=O)N[C@@H](CCCCN)C(=O)N[C@@H](CC(C)C)C(=O)N[C@@H](Cc2c[nH]c3ccccc23)C(=O)N1)[C@@H](C)CC)C(N)=O` [compound 118]: the half-inhibitory concentration (IC50) at hNav1.7 is 0.09 µM; on hNav1.5, 8.6 µM; on hNav1.4, 1.3 µM; at hNav1.3 it was 2.2 µM. In addition, the Nav1.4/Nav1.7 on hNav1.4 is 15.

Take `CC[C@H](C)[C@H](NC(=O)[C@@H](NC(=O)[C@H](CCCCN)NC(=O)[C@H](CCCNC(=N)N)NC(=O)[C@@H]1CSSC[C@@H]2NC(=O)[C@H](C)NC(=O)[C@H](CCCNC(=N)N)NC(=O)[C@H](CCCCN)NC(=O)[C@H](CO)NC(=O)[C@H](CC(=O)O)NC(=O)[C@@H]3CSSC[C@H](NC(=O)[C@H](CC(C)C)NC(=O)[C@H](CC(C)C)NC(=O)CNC(=O)[C@H](CCC(=O)O)NC(=O)[C@H](CSSC[C@H](NC(=O)[C@@H](N)Cc4ccc(O)cc4)C(=O)N[C@@H](CCC(N)=O)C(=O)N[C@@H](CCCCN)C(=O)N[C@@H](Cc4c[nH]c5ccccc45)C(=O)N[C@@H](CCSC)C(=O)N[C@@H](Cc4c[nH]c5ccccc45)C(=O)N[C@@H]([C@@H](C)O)C(=O)N3)NC2=O)C(=O)N[C@@H](CCCCN)C(=O)N[C@@H](CC(C)C)C(=O)N[C@@H](Cc2c[nH]c3ccccc23)C(=O)N1)[C@@H](C)CC)C(N)=O` [compound 119]: the IC50 at hNav1.7 worked out at 0.07 µM; on hNav1.5, 8.3 µM; at hNav1.4, 1 µM; on hNav1.3, 2.51 µM. For the same compound, on hNav1.4, the Nav1.4/Nav1.7 is recorded as 14.

On to `CC[C@H](C)[C@H](NC(=O)[C@@H](NC(=O)[C@H](CCCCN)NC(=O)[C@H](CCCNC(=N)N)NC(=O)[C@@H]1CSSC[C@@H]2NC(=O)[C@H](C)NC(=O)[C@H](CCCNC(=N)N)NC(=O)[C@H](CCCCN)NC(=O)[C@H](CO)NC(=O)[C@H](CC(=O)O)NC(=O)[C@@H]3CSSC[C@H](NC(=O)[C@H](C(C)C)NC(=O)[C@H](CC(C)C)NC(=O)CNC(=O)[C@H](CCC(=O)O)NC(=O)[C@H](CSSC[C@H](NC(=O)[C@@H](N)Cc4ccc(O)cc4)C(=O)N[C@@H](CCC(N)=O)C(=O)N[C@@H](CCCCN)C(=O)N[C@@H](Cc4c[nH]c5ccccc45)C(=O)N[C@@H](CCSC)C(=O)N[C@@H](Cc4c[nH]c5ccccc45)C(=O)N[C@@H]([C@@H](C)O)C(=O)N3)NC2=O)C(=O)N[C@@H](CCCCN)C(=O)N[C@@H](CC(C)C)C(=O)N[C@@H](Cc2c[nH]c3ccccc23)C(=O)N1)[C@@H](C)CC)C(N)=O` [compound 120], for which the IC50 was found to be 0.1 µM on hNav1.7, 7.1 µM on hNav1.5, 3 µM at hNav1.4 and 3.37 µM at hNav1.3. The Nav1.4/Nav1.7 on hNav1.4 is reported as 31.
